Data: PubChem BioAssay (NCI)
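GI50 is the concentration that inhibits growth by half. TGI: total growth inhibition.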

Key:
Assay in all cases: NCI anticancer screen, dose series, 384-well format
786-0 renal = tested on: 786-0 renal
A498 renal = tested on: A498 renal
A549 NSCLC = tested on: A549 NSCLC
ACHN renal = tested on: ACHN renal
BT-549 breast = tested on: BT-549 breast
CAKI-1 renal = tested on: CAKI-1 renal
COLO 205 colon = tested on: COLO 205 colon
DU-145 prostate = tested on: DU-145 prostate
EKVX NSCLC = tested on: EKVX NSCLC
HCC-2998 colon = tested on: HCC-2998 colon
HCT-116 colon = tested on: HCT-116 colon
HCT-15 colon = tested on: HCT-15 colon
HL-60(TB) leukemia = tested on: HL-60(TB) leukemia
HOP-62 NSCLC = tested on: HOP-62 NSCLC
HOP-92 NSCLC = tested on: HOP-92 NSCLC
HS 578T breast = tested on: HS 578T breast
HT29 colon = tested on: HT29 colon
IGROV1 ovarian = tested on: IGROV1 ovarian
K-562 leukemia = tested on: K-562 leukemia
KM12 colon = tested on: KM12 colon
LOX IMVI melanoma = tested on: LOX IMVI melanoma
M14 melanoma = tested on: M14 melanoma
MALME-3M melanoma = tested on: MALME-3M melanoma
MCF7 breast = tested on: MCF7 breast
MDA-MB-231 breast = tested on: MDA-MB-231 breast
MDA-MB-435 melanoma = tested on: MDA-MB-435 melanoma
MDA-MB-468 breast = tested on: MDA-MB-468 breast
NCI-H226 lung = tested on: NCI-H226 lung
NCI-H23 lung = tested on: NCI-H23 lung
NCI-H322M lung = tested on: NCI-H322M lung
NCI-H460 NSCLC = tested on: NCI-H460 NSCLC
NCI-H522 lung = tested on: NCI-H522 lung
NCI/ADR-RES ovarian = tested on: NCI/ADR-RES ovarian
OVCAR-3 ovarian = tested on: OVCAR-3 ovarian
OVCAR-4 ovarian = tested on: OVCAR-4 ovarian
OVCAR-5 ovarian = tested on: OVCAR-5 ovarian
OVCAR-8 ovarian = tested on: OVCAR-8 ovarian
PC-3 prostate = tested on: PC-3 prostate
RPMI-8226 leukemia = tested on: RPMI-8226 leukemia
RXF 393 renal = tested on: RXF 393 renal
SF-268 CNS = tested on: SF-268 CNS
SF-295 CNS = tested on: SF-295 CNS
SF-539 CNS = tested on: SF-539 CNS
SK-MEL-2 melanoma = tested on: SK-MEL-2 melanoma
SK-MEL-28 melanoma = tested on: SK-MEL-28 melanoma
SK-MEL-5 melanoma = tested on: SK-MEL-5 melanoma
SK-OV-3 ovarian = tested on: SK-OV-3 ovarian
SN12C renal = tested on: SN12C renal
SNB-19 CNS = tested on: SNB-19 CNS
SNB-75 CNS = tested on: SNB-75 CNS
SW-620 colon = tested on: SW-620 colon
T-47D breast = tested on: T-47D breast
TK-10 renal = tested on: TK-10 renal
U251 glioblastoma = tested on: U251 glioblastoma
UACC-257 melanoma = tested on: UACC-257 melanoma
UACC-62 melanoma = tested on: UACC-62 melanoma
UO-31 renal = tested on: UO-31 renal

CC[C@@]1(O)C(=O)OCc2c1cc1n(c2=O)Cc2cc3c(CN(C)C)c(O)ccc3nc2-1
GI50 ([…]-0 renal): 18.2 nM | TGI (786-0 renal): 63.1 nM | GI50 (A498 renal): 40.1 nM | TGI (A498 renal): 255 nM | GI50 (A549 NSCLC): 50.1 nM | TGI (A549 NSCLC): 1220 nM | GI50 (ACHN renal): 20.4 nM | TGI (ACHN renal): 47 nM | GI50 (BT-549 breast): < 15.6 nM | TGI (BT-549 breast): 71.5 nM | GI50 (CAKI-1 renal): 22.7 nM | TGI (CAKI-1 renal): 247 nM | TGI (COLO 205 colon): 800 nM | TGI (DU-145 prostate): 37.4 nM | GI50 (EKVX NSCLC): 366 nM | TGI (EKVX NSCLC): 1860 nM | GI50 (HCC-2998 colon): 118 nM | TGI (HCC-2998 colon): 311 nM | TGI (HCT-116 colon): 222 nM | GI50 (HCT-15 colon): 50.7 nM | TGI (HCT-15 colon): 1130 nM | GI50 (HL-60(TB) leukemia): < 11.3 nM | TGI (HL-60(TB) leukemia): 23.9 nM | TGI (HOP-62 NSCLC): 17.5 nM | GI50 (HOP-92 NSCLC): 32.4 nM | TGI (HOP-92 NSCLC): 266 nM | GI50 (HS 578T breast): < 39.9 nM | TGI (HS 578T breast): 715 nM | GI50 (HT29 colon): 49.6 nM | TGI (HT29 colon): 200 nM | GI50 (IGROV1 ovarian): 66.4 nM | TGI (IGROV1 ovarian): 749 nM | GI50 (K-562 leukemia): 15.9 nM | TGI (K-562 leukemia): 253 nM | GI50 (KM12 colon): 117 nM | TGI (KM12 colon): 673 nM | GI50 (LOX IMVI melanoma): 11.4 nM | TGI (LOX IMVI melanoma): 142 nM | GI50 (M14 melanoma): 20.6 nM | TGI (M14 melanoma): 64.7 nM | GI50 (MALME-3M melanoma): 130 nM | TGI (MALME-3M melanoma): 996 nM | GI50 (MCF7 breast): < 15.7 nM | TGI (MCF7 breast): 3.48 µM | GI50 (MDA-MB-231 breast): 182 nM | TGI (MDA-MB-231 breast): 781 nM | GI50 (MDA-MB-435 melanoma): 181 nM | TGI (MDA-MB-435 melanoma): 619 nM | GI50 (MDA-MB-468 breast): 10.2 nM | TGI (MDA-MB-468 breast): < 16.5 nM | GI50 (NCI-H226 lung): 19.9 nM | TGI (NCI-H226 lung): 122 nM | GI50 (NCI-H23 lung): 18.8 nM | TGI (NCI-H23 lung): 56.5 nM | GI50 (NCI-H322M lung): 143 nM | TGI (NCI-H322M lung): 451 nM | GI50 (NCI-H460 NSCLC): 19.8 nM | TGI (NCI-H460 NSCLC): 100 nM | GI50 (NCI-H522 lung): 19.8 nM | TGI (NCI-H522 lung): 236 nM | GI50 (NCI/ADR-RES ovarian): 82 nM | TGI (NCI/ADR-RES ovarian): 326 nM | GI50 (OVCAR-3 ovarian): 53.3 nM | TGI (OVCAR-3 ovarian): 282 nM | GI50 (OVCAR-4 ovarian): 469 nM | TGI (OVCAR-4 ovarian): 1700 nM | GI50 (OVCAR-5 ovarian): 147 nM | TGI (OVCAR-5 ovarian): 482 nM | GI50 (OVCAR-8 ovarian): 17.1 nM | TGI (OVCAR-8 ovarian): 180 nM | GI50 (PC-3 prostate): 385 nM | TGI (PC-3 prostate): > 36.6 µM | GI50 (RPMI-8226 leukemia): 28.6 nM | TGI (RPMI-8226 leukemia): 80.9 nM | GI50 (RXF 393 renal): 48.3 nM | TGI (RXF 393 renal): 143 nM | TGI (SF-268 CNS): 26 nM | GI50 (SF-295 CNS): < 13.1 nM | TGI (SF-295 CNS): 26.5 nM | GI50 (SF-539 CNS): 16.7 nM | TGI (SF-539 CNS): 42.6 nM | GI50 (SK-MEL-2 melanoma): 219 nM | TGI (SK-MEL-2 melanoma): 529 nM | GI50 (SK-MEL-28 melanoma): 72.1 nM | TGI (SK-MEL-28 melanoma): 1290 nM | GI50 (SK-MEL-5 melanoma): 23.6 nM | TGI (SK-MEL-5 melanoma): 69.1 nM | GI50 (SK-OV-3 ovarian): 31.6 nM | TGI (SK-OV-3 ovarian): 129 nM | GI50 (SN12C renal): 22 nM | TGI (SN12C renal): 75.3 nM | GI50 (SNB-19 CNS): 24.5 nM | TGI (SNB-19 CNS): 228 nM | GI50 (SNB-75 CNS): 25.2 nM | TGI (SNB-75 CNS): 60 nM | GI50 (SW-620 colon): < 16.6 nM | TGI (SW-620 colon): 637 nM | GI50 (T-47D breast): 21.8 nM | TGI (T-47D breast): 790 nM | GI50 (TK-10 renal): 296 nM | TGI (TK-10 renal): 3.13 µM | GI50 (U251 glioblastoma): < 13 nM | TGI (U251 glioblastoma): 58.1 nM | GI50 (UACC-257 melanoma): 154 nM | TGI (UACC-257 melanoma): 1540 nM | GI50 (UACC-62 melanoma): 16 nM | TGI (UACC-62 melanoma): 63.2 nM | GI50 (UO-31 renal): 41.6 nM | TGI (UO-31 renal): 168 nM
